Tests used:
Test in all cases: relative viability (nuclei count vs DMSO), 5 days (fraction); higher = more cells survive
Alisertib + Phenformin = compound: COc1cc(Nc2ncc3c(n2)-c2ccc(Cl)cc2C(c2c(F)cccc2OC)=NC3)ccc1C(=O)O [Alisertib] + N=C(N)NC(=N)NCCc1ccccc1 [Phenformin] (partner 250 µM)
Outline: (§1)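 Cells from lung cancer lines were seeded into 1536-well plates and, one day later, dosed by pin tool. Treatments were either a single drug or a fixed dose of an anchor drug with five library-drug doses (not always all listed) in √10 steps. After 5 days, nuclei were stained in a one-step fixation (final 0.05% Triton X-100, 1% formaldehyde, 1 ug/ml Hoechst) and counted on 4× images, and relative viability is the treated-to-vehicle nuclei ratio, as the median of duplicate plates.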

Alisertib + AZD7762 = compound: COc1cc(Nc2ncc3c(n2)-c2ccc(Cl)cc2C(c2c(F)cccc2OC)=NC3)ccc1C(=O)O [Alisertib] + NC(=O)Nc1cc(-c2cccc(F)c2)sc1C(=O)N[C@H]1CCCNC1 [AZD7762] (partner 0.2 µM)
Outline: as §1

Alisertib + Alpelisib = compound: COc1cc(Nc2ncc3c(n2)-c2ccc(Cl)cc2C(c2c(F)cccc2OC)=NC3)ccc1C(=O)O [Alisertib] + Cc1nc(NC(=O)N2CCC[C@H]2C(N)=O)sc1-c1ccnc(C(C)(C)C(F)(F)F)c1 [Alpelisib] (partner 2 µM)
Outline: as §1

Alisertib + Pictilisib = compound: COc1cc(Nc2ncc3c(n2)-c2ccc(Cl)cc2C(c2c(F)cccc2OC)=NC3)ccc1C(=O)O [Alisertib] + CS(=O)(=O)N1CCN(Cc2cc3nc(-c4cccc5[nH]ncc45)nc(N4CCOCC4)c3s2)CC1 [Pictilisib] (partner 1 µM)
Outline: as §1

| Cell Line | relative viability (Alisertib + Phenformin; first compound 0.005 µM) | relative viability (Alisertib + Phenformin; first compound 0.01581 µM) | relative viability (Alisertib + Phenformin; first compound 0.05 µM) | relative viability (Alisertib + Phenformin; first compound 0.1581 µM) | relative viability (Alisertib + Phenformin; first compound 0.5 µM) | relative viability (Alisertib + AZD7762; first compound 0.005 µM) | relative viability (Alisertib + AZD7762; first compound 0.01581 µM) | relative viability (Alisertib + AZD7762; first compound 0.05 µM) | relative viability (Alisertib + AZD7762; first compound 0.1581 µM) | relative viability (Alisertib + AZD7762; first compound 0.5 µM) | relative viability (Alisertib + Alpelisib; first compound 0.005 µM) | relative viability (Alisertib + Alpelisib; first compound 0.01581 µM) | relative viability (Alisertib + Alpelisib; first compound 0.05 µM) | relative viability (Alisertib + Alpelisib; first compound 0.1581 µM) | relative viability (Alisertib + Alpelisib; first compound 0.5 µM) | relative viability (Alisertib + Pictilisib; first compound 0.005 µM) | relative viability (Alisertib + Pictilisib; first compound 0.01581 µM) | relative viability (Alisertib + Pictilisib; first compound 0.05 µM) | relative viability (Alisertib + Pictilisib; first compound 0.1581 µM) | relative viability (Alisertib + Pictilisib; first compound 0.5 µM) |
| --- | --- | --- | --- | --- | --- | --- | --- | --- | --- | --- | --- | --- | --- | --- | --- | --- | --- | --- | --- | --- |
| LCLC-103H | 0.305 | 0.304 | 0.316 | 0.175 | 0.187 | 0.711 | 0.767 | 0.764 | 0.41 | 0.322 | 0.849 | 1.03 | 0.313 | 0.335 | 0.333 | 0.588 | 0.687 | 0.573 | 0.211 | 0.206 |
| LK-2 | 0.38 | 0.385 | 0.179 | 0.149 | 0.163 | 0.321 | 0.382 | 0.205 | 0.153 | 0.14 | 1.08 | 0.878 | 0.364 | 0.299 | 0.268 | 0.573 | 0.566 | 0.314 | 0.329 | 0.26 |
| LOU-NH91 | 0.582 | 0.668 | 0.508 | 0.372 | 0.32 | 0.759 | 0.721 | 0.585 | 0.436 | 0.393 | 0.728 | 0.762 | 0.635 | 0.442 | 0.409 | 0.508 | 0.487 | 0.448 | 0.366 | 0.392 |
| LU99A | 0.755 | 0.798 | 0.658 | 0.3 | 0.239 | 0.502 | 0.296 | 0.158 | 0.131 | 0.136 | 0.493 | 0.455 | 0.181 | 0.163 | 0.154 | 0.404 | 0.341 | 0.252 | 0.159 | 0.151 |

Source: the supplement of paper PMC10307832
